Measured values taken from article PMC12489727, “Malonyl-Caffeoylquinic Acids and Malonyl-Flavonoid-Glucosides from Three Edible Apiaceae Plants Anthriscus Cerefolium, Anthriscus Sylvestris, and Chaerophyllum Bulbosum” (ACS Omega, 2025).

What was measured:
[1] = tested on: noncancerous rat kidney epithelial cells (NRK); parameters: method as in earlier work; details: previously reported, ref 40 (Slimestad et al., 2022); cited from earlier work
[2] = tested on: human leukemia cells (MOLM-13); parameters: method as in earlier work; details: MOLM-13 cells; previously reported; ref 40 (Slimestad et al., 2022); cited from earlier work
[3] = DPPH radical scavenging assay; type: biochemical; details: 6 min incubation at room temperature, absorbance at 515 nm, triplicate
Procedure: A DPPH radical scavenging assay was conducted following a previously published protocol, as detailed in the Supporting Information.
Antioxidant Activity Tests. A DPPH radical scavenging assay was used according to a previously
published protocol.13 Serial dilutions of compounds (prepared in methanol) were incubated with
DPPH solution for 6 min at room temperature. The reduction in absorbance was measured with a
HITACHI U-2000 spectrophotometer (Hitachi Ltd., Tokyo, Japan) at 515 nm. […]

[4] = tested on: promyelocytic leukemia (HL-60); assay: In vitro cytostatic effect, Alamar Blue viability assay, HL-60; type: cell-based, human; details: HL-60 cells, overnight treatment 0.08-100 µM, then 72 h culture
Procedure: (§1) The cytostatic effects of the compounds were evaluated in vitro on various cancer cells and noncancerous Vero E6 cells using the Alamar Blue viability assay, as detailed in the Supporting Information.
(§2) The cytostatic effects of MDiCQAs and FMGls were evaluated in vitro using the Alamar Blue viability assay on five human cancer cell lines: colorectal carcinoma (HT-29), glioma (U87), hepatocellular carcinoma (HepG2), promyelocytic leukemia (HL-60), and melanoma (A2058). They were also tested on nontumorous Vero E6 cells, kidney epithelial cells from an African green monkey, to evaluate the selectivity of the compounds. […] The two effective MDiCQAs (4 and 9) share a common structural feature: their central quinic acid core is substituted with caffeoyl moieties at the C-1 and C-5 positions and a malonyl group at the C-3 position. In contrast, the ineffective compound 7 has caffeoyl moieties at the same positions, but its malonyl group is attached to the C-4 position instead of C-3. Similarly, in the other ineffective MDiCQAs (5 and 6), the malonyl unit is also located at the C-4 position, while their caffeoyl groups are positioned at C-3 and C-5. […] The results also indicate a high degree of isomer-specificity in the cytostatic activity of MDiCQAs. […] In particular, the inhibition of Vero E6 cells by the MDiCQAs (4 and 9) can be considered as a strong effect, and that of the FMGl (3) as a weaker one, with IC50 values below 10 μM and around 40 μM, respectively. […]
Determination of the In Vitro Cytostatic Effects of Compounds. In vitro, the cytostatic effect of the compounds was determined on various human tumor- and non-human primate Vero E6 cells using Alamar Blue end-point viability assay. Cells were cultured in DMEM medium supplemented with 10% FBS, 2 mM L-glutamine, 50 IU/mL penicillin/50 µg/mL streptomycin antibiotic cocktail, 1 mM sodium pyruvate and 1% non-essential amino acid mixture at 37 °C in a humidified atmosphere with 5% CO2. At the confluent state, cells were plated into 96-well tissue culture plates with the initial cell number of 5.0×10^3 cells/well. Cells were treated with the compounds after 24 hours in a serum-free medium containing 1.0% (v/v) DMSO at 0.08 -100 µM concentration. Control cells were treated with serum-free medium or DMSO (c=1.0%, v/v ) containing serum-free medium. After overnight incubation, cells were washed twice with a serum-free medium; then, they were cultured for another 72 hours in the complete culturing medium at 37 °C. Following that, 22.5 µL Alamar Blue (resazurin sodium salt, Merck) solution (0.15 mg/mL in PBS) was added to each well and after 4 hrs of incubation, the fluorescence was measured at λEx = 530/30 and λEM = 610/10 nm using a Synergy H4 multi-mode microplate reader (BioTek). […]

[5] = tested on: hepatocellular carcinoma (HepG2); assay: In vitro cytostatic effect, Alamar Blue viability assay, HepG2; type: cell-based, human; details: HepG2 cells, overnight treatment 0.08-100 µM, then 72 h culture
Procedure: as §1, §2
(§3) Determination of the In Vitro Cytostatic Effects of Compounds. In vitro, the cytostatic effect of the compounds was determined on various human tumor- and non-human primate Vero E6 cells using Alamar Blue end-point viability assay. Cells were cultured in DMEM medium supplemented with 10% FBS, 2 mM L-glutamine, 50 IU/mL penicillin/50 µg/mL streptomycin antibiotic cocktail, 1 mM sodium pyruvate and 1% non-essential amino acid mixture at 37 °C in a humidified atmosphere with 5% CO2. At the confluent state, cells were plated into 96-well tissue culture plates with the initial cell number of 5.0×10^3 cells/well. Cells were treated with the compounds after 24 hours in a serum-free medium containing 1.0% (v/v) DMSO at 0.08 -100 µM concentration. Control cells were treated with serum-free medium or DMSO (c=1.0%, v/v ) containing serum-free medium. After overnight incubation, cells were washed twice with a serum-free medium; then, they were cultured for another 72 hours in the complete culturing medium at 37 °C. Following that, 22.5 µL Alamar Blue (resazurin sodium salt, Merck) solution (0.15 mg/mL in PBS) was added to each well and after 4 hrs of incubation, the fluorescence was measured at λEx = 530/30 and λEM = 610/10 nm using a Synergy H4 multi-mode microplate reader (BioTek). All measurements were performed in quadruplets, and the mean IC50 values and ± SEM were represented.

[6] = tested on: colorectal carcinoma (HT-29); assay: In vitro cytostatic effect, Alamar Blue viability assay, HT-29; type: cell-based, human; details: HT-29 cells, overnight treatment 0.08-100 µM, then 72 h culture
Procedure: as §1, §2, §3

Vero E6 cells = assay: In vitro cytostatic effect, Alamar Blue viability assay, Vero E6; type: cell-based, African green monkey; details: then 72 h culture
Procedure: as §1, §2, §3

melanoma (A2058) = assay: In vitro cytostatic effect, Alamar Blue viability assay, A2058; type: cell-based, human; details: A2058 cells, overnight treatment 0.08-100 µM, then 72 h culture
Procedure: as §1, §2, §3

glioma (U87) = assay: In vitro cytostatic effect, Alamar Blue viability assay, U87; type: cell-based, human; details: U87 cells, overnight treatment 0.08-100 µM, then 72 h culture
Procedure: as §1, §2, §3

[7] = overnight treatment 0.08-100 µM
[8] = Chlorocebus sabaeus, Vero C1008, 72 h, overnight treatment 0.08-100 µM

1,3-dicaffeoyl-5-malonyl-δ-quinide
in vitro cytotoxicity [1]: nonselective in vitro cytotoxicity | in vitro cytotoxicity [2]: nonselective in vitro cytotoxicity

O=C(O)CC(=O)OC[C@H]1O[C@@H](Oc2c(-c3ccc(O)c(O)c3)oc3cc(O)cc(O)c3c2=O)[C@H](O)[C@@H](O)[C@@H]1O [Compound 1, quercetin-3-O-(6″-O-malonyl)-β-D-glucoside]
IC50 [3]: 22.5 ± 0.6 µM

O=C(O)CC(=O)OC[C@H]1O[C@@H](Oc2cc(O)c3c(=O)cc(-c4ccc(O)c(O)c4)oc3c2)[C@H](O)[C@@H](O)[C@@H]1O [Compound 2, luteolin-7-O-(6″-O-malonyl)-β-D-glucoside]
IC50 [3]: 7.8 ± 0.4 µM

O=C(O)CC(=O)OC[C@H]1O[C@@H](Oc2c(-c3ccc(O)cc3)oc3cc(O)cc(O)c3c2=O)[C@H](O)[C@@H](O)[C@@H]1O [Compound 3, kaempferol-3-O-(6″-O-malonyl)-β-D-glucoside]
IC50 [4]: 51.4 ± 6.7 µM | IC50 [5]: 27.5 ± 3.4 µM | IC50 [6]: > 100 µM | IC50 (Vero E6 cells; [7]): 39.8 ± 2 µM | IC50 (melanoma (A2058)): 21 ± 3 µM | IC50 [3]: 233.9 ± 0.9 µM | IC50 (glioma (U87)): 86.3 ± 9.4 µM

O=C(O)CC(=O)OC1CC(OC(=O)C=Cc2ccc(O)c(O)c2)(C(=O)O)CC(OC(=O)C=Cc2ccc(O)c(O)c2)C1O (stereo not drawn) [Compound 4, 1,5-Dicaffeoyl-3-malonylquinic Acid]
IC50 ([4]; Homo sapiens): 29.7 ± 4.6 µM | IC50 ([5]; Homo sapiens): 25.6 ± 2.3 µM | IC50 ([6]; Homo sapiens): > 100 µM | IC50 (Vero E6 cells; [8]): < 10 µM | IC50 (Vero E6 cells; [7]): 9.9 ± 1.4 µM | IC50 (melanoma (A2058); Homo sapiens): 13.5 ± 1.5 µM | IC50 (glioma (U87); Homo sapiens, U-87 MG): > 100 µM

O=C(O)CC(=O)OC[C@H]1O[C@@H](Oc2cc(O)c3c(=O)cc(-c4ccc(O)c(O)c4)oc3c2)[C@H](OC(=O)CC(=O)O)[C@@H](O)[C@@H]1O [Compound 8, Luteolin-7-O-(2″,6″-di-O-malonyl)-β-D-glucoside]
IC50 ([5]; Homo sapiens): > 100 µM | IC50 ([6]; Homo sapiens): > 100 µM | IC50 (Vero E6 cells; [8]): > 100 µM | IC50 (melanoma (A2058); Homo sapiens): > 100 µM | IC50 [3]: 14.8 ± 0.6 µM | IC50 (glioma (U87); Homo sapiens, U-87 MG): > 100 µM

O=C(O)CC(=O)OC1CC(OC(=O)C=Cc2ccc(O)c(O)c2)(C(=O)O)CC(OC(=O)C=Cc2ccc(O)c(O)c2)C1OC(=O)CC(=O)O (stereo not drawn) [Compound 9, 1,5-Dicaffeoyl-3,4-dimalonylquinic Acid]
IC50 ([4]; Homo sapiens): > 100 µM | IC50 ([5]; Homo sapiens): > 100 µM | IC50 ([6]; Homo sapiens): 47.9 ± 2.3 µM | IC50 (Vero E6 cells; [8]): < 10 µM | IC50 (Vero E6 cells; [7]): 9.5 ± 3.1 µM | IC50 (melanoma (A2058); Homo sapiens): 11.9 ± 2.2 µM | IC50 [3]: 13.6 ± 0.4 µM | IC50 (glioma (U87); Homo sapiens, U-87 MG): 48.5 ± 4.6 µM

COc1cccc2c1C(=O)c1c(O)c3c(c(O)c1C2=O)C[C@@](O)(C(C)=O)C[C@@H]3O[C@H]1C[C@H](N)[C@H](O)[C@H](C)O1 [Daunomycin, reference compound]
IC50 ([4]; Homo sapiens): 0.16 ± 0.03 µM | IC50 ([5]; Homo sapiens): 0.54 ± 0.15 µM | IC50 ([6]; Homo sapiens): 0.9 ± 0.1 µM | IC50 (Vero E6 cells; Chlorocebus sabaeus, Vero C1008, overnight treatment 0.08-100 µM): 1.7 ± 0.5 µM | IC50 (melanoma (A2058); Homo sapiens): 0.2 ± 0.01 µM | IC50 (glioma (U87); Homo sapiens, U-87 MG): 0.6 ± 0.05 µM

Cc1c(C)c2c(c(C)c1O)CCC(C)(C(=O)O)O2 (stereo not drawn) [Trolox, reference compound]
IC50 [3]: 18.4 ± 0.1 µM
